These are literature values, as cited in US20040122089A1, “Novel eicosanoid analgesics” (priority 2001, published 2004).

For orientation: EC50 means the concentration needed to bring the measured effect to its halfway point. As usually defined, the IC50 is the concentration that inhibits the measured activity by half.

The target of series [1] is T1, rat or human VR1 (UniProt Q8NER1).
T1 construct: other: Xenopus oocytes or HEK cells over-expressing rat or human VR1
The note with it: Xenopus oocytes or HEK cells over-expressing rat or human VR1; read-out: VR1 EC50 (literature); cited from earlier work.

The subject of series [2] is anandamide membrane transporter (AMT). The settings on record: RBL-2H3 cells; read-out: AMT IC50 (previously reported); cited from earlier work.
The subject of a further series is mice. The settings on record: cited from earlier work.
Series [3] has as its system rat or human VR1. The settings on record: cited from earlier work.

For the compound `CCCCC/C=C\C/C=C\C/C=C\C/C=C\CCCC(=O)NCCO` [AEA, arachidonoylethanolamide], the EC50 on rat or human VR1 [1] was 1 to 5 µM.
Consider `CCCCC/C=C\C/C=C\C/C=C\C/C=C\CCCC(=O)N[C@H](C)CO` [Met-AEA, (R)-1′-Methyl-2′-hydroxy-ethyl-arachidonamide], for which the IC50 in series [2] was 24.5 µM.
`CCCCC/C=C\C/C=C\C/C=C\C/C=C\CCCC(=O)NCc1ccc(O)c(OC)c1` [arvanil, N-[3-methoxy-4-hydroxy-benzyl]-arachidonamide]: the IC50 in series [2] was 3.6 µM. The “ED50 in the 'tetrad'” value in the series on mice is given as 0.085 mg/kg. Besides, the “fold more potent at VR1 than CB1 receptors” value with rat or human VR1 [3] is on record as “approximately 500 fold”.
